Experiment: method code SF, from DOI: 10.1007/bf00302523

| Compound | logP |
| --- | --- |
| COP(=S)(OC)Oc1ccc([N+](=O)[O-])cc1Cl | 3.44 |
| CCc1cc(OP(=S)(OC)OC)ccc1[N+](=O)[O-] | 3.74 |
| COP(=O)(OC)Oc1ccc([N+](=O)[O-])c(Cl)c1 | 1.83 |
| COP(=O)(OC)Oc1ccc([N+](=O)[O-])cc1Cl | 1.84 |
| COP(=S)(OC)Oc1cc(C)c([N+](=O)[O-])c(C)c1 | 3.89 |
| COP(=S)(OC)Oc1ccc([N+](=O)[O-])c(C)c1 | 3.3 |
| COP(=S)(OC)Oc1ccc([N+](=O)[O-])c(Cl)c1 | 3.45 |
| COP(=O)(OC)Oc1cc(C)c([N+](=O)[O-])c(C)c1 | 2.26 |
| COP(=O)(OC)Oc1ccc([N+](=O)[O-])c(C(C)C)c1 | 2.57 |
| CCc1cc(OP(=O)(OC)OC)ccc1[N+](=O)[O-] | 2.19 |
| COP(=S)(OC)Oc1ccc([N+](=O)[O-])c(C(C)C)c1 | 4.05 |
| COP(=O)(OC)Oc1ccc([N+](=O)[O-])c(C)c1 | 1.69 |
